Measurements taken from ChEMBL document CHEMBL1201862, “PubChem BioAssay data set” (2004).
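Five compound concentrations were applied to cells in 96-well plates for 48 hours; endpoints were derived by simple linear interpolation of the resulting dose-response curve. GI50 marks 50% less growth.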 Active and inactive are the calls of the source. No stated cut-off is given here; in the data, active = GI50 up to about 1.1 µM and inactive = higher.

Columns and labels:
Assay in all cases: DTP human tumour cell line panel, 48 h
[1] = test system: 786-0
[2] = test system: HCC 2998
[3] = test system: KM12
[4] = test system: MOLT-4
[5] = test system: NCI-H23
[6] = test system: NCI-H460
[7] = test system: NCI-H522
[8] = test system: OVCAR-3
[9] = test system: RPMI-8226
[10] = test system: SK-MEL-5
[11] = test system: SN12C
[12] = test system: SNB-75
[13] = test system: SW-620
[14] = test system: TK-10
[15] = test system: UO-31
[16] = test system: OVCAR-4

Measured: GI50

C[Si](C)(C)/C=C\CCCN1C(=O)CCC1=O
inactive: [1] > 100 µM | [2] > 100 µM | [3] > 100 µM | [4] > 100 µM | [5] > 100 µM | [6] > 100 µM | [7] > 100 µM | [8] > 100 µM | [9] > 100 µM | [10] 93.8 µM | [11] > 100 µM | [12] 62.5 µM | [13] > 100 µM | [14] > 100 µM | [15] > 100 µM

CCCCNc1nc(C#N)c(N)s1
inactive: [1] > 100 µM | [2] > 100 µM | [3] > 100 µM | [4] > 100 µM | [5] > 100 µM | [6] > 100 µM | [7] > 100 µM | [8] > 100 µM | [16] > 100 µM | [9] > 100 µM | [11] > 100 µM | [12] > 100 µM | [13] > 100 µM | [14] > 100 µM | [15] > 100 µM

COC(=O)C(=O)C(C(=O)C(=O)Nc1ccc(OC)cc1[N+](=O)[O-])c1nc2ccc([N+](=O)[O-])cc2nc1O (stereo not drawn)
inactive: [1] > 100 µM | [2] > 100 µM | [3] > 100 µM | [4] > 100 µM | [5] > 100 µM | [6] > 100 µM | [7] > 100 µM | [8] > 100 µM | [16] > 100 µM | [9] > 100 µM | [11] > 100 µM | [12] 26.5 µM | [13] > 100 µM | [14] > 100 µM | [15] > 100 µM

Cc1nc2ccccc2c(=O)n1/N=C(\N=N\c1ccc(Cl)cc1)c1cccc(-c2ccco2)c1
inactive: [1] 39.6 µM | [4] 22.4 µM | [5] 21.6 µM | [6] 37.7 µM | [7] 17.7 µM | [9] 19.1 µM | [10] 18.9 µM | [11] 29.2 µM | [13] 42.5 µM | [14] 51.5 µM | [15] 14.1 µM

CCN(CC)/[N+]([O-])=N/O
inactive: [2] > 100 µM | [3] > 100 µM | [4] > 100 µM | [5] > 100 µM | [6] > 100 µM | [7] > 100 µM | [8] > 100 µM | [10] > 100 µM | [11] > 100 µM | [13] > 100 µM | [14] > 100 µM | [15] > 100 µM

C=C1CC(CC)(CCN2C(=O)c3ccccc3C2=O)OC1=O (stereo not drawn)
inactive: [1] 11.9 µM | [2] 17.7 µM | [3] 21 µM | [4] 21.9 µM | [5] 14.1 µM | [6] 69.2 µM | [7] 3.48 µM | [16] 14.2 µM | [9] 22.7 µM | [10] 12.9 µM | [11] 18.6 µM | [12] 43.8 µM | [13] 7.55 µM | [14] 17.7 µM | [15] 19.7 µM

c1ccc(NCn2cnc3ccccc32)cc1
inactive: [1] > 100 µM | [3] > 100 µM | [4] > 100 µM | [5] > 100 µM | [6] > 100 µM | [7] > 100 µM | [8] > 100 µM | [16] > 100 µM | [9] 25.9 µM | [10] > 100 µM | [11] > 100 µM | [12] 56.9 µM | [13] 35.6 µM | [14] > 100 µM | [15] > 100 µM

CCOC(=O)/C(C#N)=C\Sc1ccccc1
inactive: [1] 15.3 µM | [3] 15.9 µM | [4] 5.05 µM | [5] 28.3 µM | [6] 26.4 µM | [7] 3.21 µM | [8] 17.4 µM | [16] 26.7 µM | [9] 13.7 µM | [10] 22.3 µM | [11] 14 µM | [12] 18.8 µM | [13] 25.9 µM | [14] 32.4 µM | [15] 9.2 µM

NC1C[C@H](n2cc(/C=C/Br)c(=O)[nH]c2=O)C[C@@H]1CO (stereo partly drawn)
inactive: [1] > 100 µM | [2] > 100 µM | [4] > 100 µM | [5] > 100 µM | [6] > 100 µM | [7] > 100 µM | [8] > 100 µM | [16] > 100 µM | [9] > 100 µM | [11] > 100 µM | [12] > 100 µM | [14] > 100 µM | [15] > 100 µM

CC(=O)NS(=O)(=O)c1ccc(NC(=O)COC(=O)c2cccc3c(=O)c4ccccc4[nH]c23)cc1
inactive: [1] > 100 µM | [3] > 100 µM | [4] > 100 µM | [5] > 100 µM | [6] > 100 µM | [7] > 100 µM | [8] 92.5 µM | [9] > 100 µM | [10] > 100 µM | [11] > 100 µM | [12] > 100 µM | [13] > 100 µM | [14] > 100 µM | [15] > 100 µM

O=C(CC1(O)C(=O)Nc2ccc([N+](=O)[O-])cc21)c1ccncc1 (stereo not drawn)
inactive: [1] 69.7 µM | [2] 67 µM | [3] 39 µM | [4] 24.2 µM | [5] 22.1 µM | [6] 48.6 µM | [7] 29.8 µM | [8] 25.2 µM | [16] 22.1 µM | [9] 25.2 µM | [11] 43.6 µM | [12] 26.1 µM | [13] 20.5 µM | [14] > 100 µM | [15] 56.1 µM

Cc1cc([N+](=O)[O-])ccc1NC(=O)C(=O)C(C(=O)c1ccccc1-c1ccccc1)C1OC(=O)c2ccccc21 (stereo not drawn)
inactive: [1] 16.1 µM | [2] 15.5 µM | [3] 15 µM | [4] 15.6 µM | [5] 25.6 µM | [6] 17 µM | [7] 12.9 µM | [16] 26.2 µM | [9] 24 µM | [10] 15 µM | [11] 15.8 µM | [13] 18 µM | [14] 17.8 µM | [15] 16.6 µM

COc1cc(/C=N/N=C(\N)NO)cc(Cl)c1O
inactive: [1] 43.7 µM | [2] 45.3 µM | [3] 78 µM | [4] 50.2 µM | [5] 36.9 µM | [6] 41.6 µM | [7] > 100 µM | [8] 70.3 µM | [16] 76.9 µM | [9] > 100 µM | [10] 33.4 µM | [11] 48.8 µM | [13] 99.3 µM | [15] 23.9 µM

C1CC[N+]23CCCC[N+]2(C1)CCCC3 (stereo not drawn)
inactive: [1] > 100 µM | [2] > 100 µM | [4] > 100 µM | [5] > 100 µM | [6] > 100 µM | [7] > 100 µM | [8] > 100 µM | [16] > 100 µM | [9] > 100 µM | [10] > 100 µM | [11] > 100 µM | [12] > 100 µM | [13] > 100 µM | [14] > 100 µM | [15] > 100 µM
